According to patent publication US9745285B2, “Heteroaryl substituted pyrazoles” (BAYER PHARMA AKTIENGESELLSCHAFT, priority 2013, dated 2017):

Key:
[1] = target: T1, catalytic domain of human Bub1 (amino acids 704-1085) (Homo sapiens, UniProt O43683); experiment: Bub1 kinase assay (TR-FRET); type: biochemical; conditions: 10 μM ATP, 1 μM peptide substrate, median value, read-out: Biological Assay 1: Bub1 kinase assay median IC50
T1 construct: catalytic domain of human Bub1 (amino acids 704-1085); His6 (N); made in house; host or cells: Hi5 insect cells
T1 sequence (O43683 704-1085): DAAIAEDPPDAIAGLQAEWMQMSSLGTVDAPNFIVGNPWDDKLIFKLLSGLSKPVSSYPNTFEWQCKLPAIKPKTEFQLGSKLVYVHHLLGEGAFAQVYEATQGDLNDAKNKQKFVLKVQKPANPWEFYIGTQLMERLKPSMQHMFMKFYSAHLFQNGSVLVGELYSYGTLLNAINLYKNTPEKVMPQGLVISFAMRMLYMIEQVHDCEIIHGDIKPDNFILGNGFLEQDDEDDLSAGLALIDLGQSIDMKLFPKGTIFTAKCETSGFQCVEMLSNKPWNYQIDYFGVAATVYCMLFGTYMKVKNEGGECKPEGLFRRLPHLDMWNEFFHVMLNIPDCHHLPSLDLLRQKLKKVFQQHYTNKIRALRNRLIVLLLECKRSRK
Description: Bub1-inhibitory activities of compounds described in the present invention were quantified using a time-resolved fluorescence energy transfer (TR-FRET) kinase assay which measures phosphorylation of the synthetic peptide Biotin-Ahx-VLLPKKSFAEPG (C-terminus in amide form), purchased from e.g. Biosyntan (Berlin, Germany) by the (recombinant) catalytic domain of human Bub1 (amino acids 704-1085), expressed in Hi5 insect cells with an N-terminal His6-tag and purified by affinity—(Ni-NTA) and size exclusion chromatography.
In a typical assay 11 different concentrations of each compound (0.1 nM, 0.33 nM, 1.1 nM, 3.8 nM, 13 nM, 44 nM, 0.15 μM, 0.51 μM, 1.7 μM, 5.9 μM and 20 μM) were tested in duplicate within the same microtiter plate. To this end, 100-fold concentrated compound solutions (in DMSO) were previously prepared by serial dilution (1:3.4) of 2 mM stocks in a clear low volume 384-well source microtiter plate (Greiner Bio-One, Frickenhausen, Germany), from which 50 nL of compounds were transferred into a black low volume test microtiter plate from the same supplier. Subsequently, 2 μL of Bub1 (the final concentration of Bub1 was adjusted depending on the activity of the enzyme lot in order to be within the linear dynamic range of the assay: typically 200 ng/mL were used) in aqueous assay buffer [50 mM Tris/HCl pH 7.5, 10 mM magnesium chloride (MgCl2), 200 mM potassium chloride (KCl), 1.0 mM dithiothreitol (DTT), 0.1 mM sodium orthovanadate, 1% (v/v) glycerol, 0.01% (w/v) bovine serum albumine (BSA), 0.005% (v/v) Trition X-100 (Sigma), 1× Complete EDTA-free protease inhibitor mixture (Roche)] were added to the compounds in the test plate and the mixture was incubated for 15 min at 22° C. to allow pre-equilibration of the putative enzyme-inhibitor complexes before the start of the kinase reaction, which was initiated by the addition of 3 μL 1.67-fold concentrated solution (in assay buffer) of adenosine-triphosphate (ATP, 10 μM final concentration) and peptide substrate (1 μM final concentration). […] Subsequently, the amount of product was evaluated by measurement of the resonance energy transfer from the Eu-chelate-antibody complex recognizing the Phosphoserine residue to the streptavidin-XL665 bound to the biotin moiety of the peptide. To this end, the fluorescence emissions at 620 nm and 665 nm after excitation at 330-350 nm were measured in a TR-FRET plate reader, e.g. a Rubystar or Pherastar (both from BMG Labtechnologies, Offenburg, Germany) or a Viewlux (Perkin-Elmer) and the ratio of the emissions (665 nm/622 nm) was taken as indicator for the amount of phosphorylated substrate. […] IC50 values were calculated by fitting the normalized inhibition data to a 4-parameter logistic equation (Minimum, Maximum, IC50, Hill; Y=Max+(Min−Max)/(1+(X/IC50)Hill)).

[2] = system: HeLa human cervical cancer cell line; experiment: Proliferation assay (HeLa cell line, crystal violet); type: cell-based; conditions: 96 h, HeLa cells, 4 days incubation, crystal violet staining, median value, read-out: Biological Assay 2: Proliferation assay (HeLa cell line) median IC50
Description: Cultivated tumor cells (cells were ordered from ATCC) were plated at a density of 3000 cells/well in a 96-well multititer plate in 200 μL of growth medium supplemented 10% fetal calf serum. After 24 hours, the cells of one plate (zero-point plate) were stained with crystal violet (see below), while the medium of the other plates was replaced by fresh culture medium (200 μL), to which the test substances were added in various concentrations (0 μM, as well as in the range of 0.001-10 μM; the final concentration of the solvent dimethyl sulfoxide was 0.5%). The cells were incubated for 4 days in the presence of test substances. Cell proliferation was determined by staining the cells with crystal violet: the cells were fixed by adding 20 μL/measuring point of an 11% glutaric aldehyde solution for 15 minutes at room temperature. After three washing cycles of the fixed cells with water, the plates were dried at room temperature. The cells were stained by adding 100 μL/measuring point of a 0.1% crystal violet solution (pH 3.0). […] Absorption was determined by photometry at a wavelength of 595 nm.
The change of cell number, in percent, was calculated by normalization of the measured values to the absorption values of the zero-point plate (=0%) and the absorption of the untreated (0 μm) cells (=100%). The IC50 values were determined by means of a 4 parameter fit.

Row | SMILES | IC50 [1] [nM] | IC50 [2] [nM]
1 | COc1cnc(-c2nn(Cc3c(Cl)cnn3C)c(C3CC3)c2C)nc1Nc1ccncc1 [Example 2-1-1, 2-{1-[(4-chloro-1-methyl-1H-pyrazol-5-yl)methyl]-5-cyclopropyl-4-methyl-1H-pyrazol-3-yl}-5-methoxy-N-(pyridin-4-yl)pyrimidin-4-amine] | 9 | 
2 | COc1cnc(-c2nn(Cc3c(C)noc3C)c(C3CC3)c2C)nc1Nc1ccncc1C(N)=O [Example 2-2-1, 4-[(2-{5-cyclopropyl-1-[(3,5-dimethyl-1,2-oxazol-4-yl)methyl]-4-methyl-1H-pyrazol-3-yl}-5-methoxypyrimidin-4-yl)amino]nicotinamide] | 16 | > 10000
3 | CCOC(=O)c1cnccc1Nc1nc(-c2nn(Cc3nnc(C)o3)c(C3CC3)c2C)ncc1OC [Example 2-4-2, ethyl 4-[(2-{5-cyclopropyl-4-methyl-1-[(5-methyl-1,3,4-oxadiazol-2-yl)methyl]-1H-pyrazol-3-yl}-5-methoxypyrimidin-4-yl)amino]pyridine-3-carboxylate] | 2100 | 
4 | COc1cnc(-c2nn(Cc3nnc(C)o3)c(C3CC3)c2C)nc1Nc1ccncc1C(N)=O [Example 2-5-1, 4-[(2-{5-cyclopropyl-4-methyl-1-[(5-methyl-1,3,4-oxadiazol-2-yl)methyl]-1H-pyrazol-3-yl}-5-methoxypyrimidin-4-yl)amino]pyridine-3-carboxamide] | 680 | > 10000
